Consider twelve compounds from US12139492B2 (Endotarget Inc., priority 2021, dated 2024).

Each structure is given as a SMILES string. Some results are limits rather than exact numbers.

For one experiment, the system named is JeKo-1 cells. Nature of the experiment: Antiproliferative effect, MTS cell viability assay, JeKo-1 cells. As to conditions: Homo sapiens; JeKo-1 mantle cell lymphoma cells; read-out: IC50 (anti-proliferation) JeKO-1 cells. Type of experiment: cell-based. In a few lines: (§1)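 Mino and JeKo-1 mantle B-cell lymphoma lines were exposed to compound at 0, 0.001, 0.01, 0.1, 1 and 10 μM for 72 h. Viability was read by MTS reduction to formazan, measured as absorbance at 490 nm.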
For orientation: Formazan colour is commonly taken as a measure of viable cells.

Experiment [1] has as its target T1, BTK (Homo sapiens, UniProt Q06187). Nature of the experiment: BTK degradation, DC50 and Dmax of Table 1 (cell line not given). The format is cell-based. More on the design: endogenous in cells. As to conditions: for DC50: concentration giving 50% reduction of BTK expression level.
A further experiment deals with Mino cells. Nature of the experiment: Antiproliferative effect, MTS cell viability assay, Mino cells. As to conditions: Homo sapiens, MINO, Mino mantle cell lymphoma cells; read-out: IC50 (anti-proliferation) Mino cells. Type of experiment: cell-based. Put shortly:
as §1

Experiment [2] has as its target T1, BTK. Nature of the experiment: Degradation of BTK protein in Namalwa cells (Western blot; DC50, Dmax). The note with it: Namalwa B lymphocyte cells, Western blot; for degradation of BTK protein: various concentrations, 24 hours. A general note: A western blot detects proteins with antibodies after separation by electrophoresis.

T1 sequence (Q06187 whole entry): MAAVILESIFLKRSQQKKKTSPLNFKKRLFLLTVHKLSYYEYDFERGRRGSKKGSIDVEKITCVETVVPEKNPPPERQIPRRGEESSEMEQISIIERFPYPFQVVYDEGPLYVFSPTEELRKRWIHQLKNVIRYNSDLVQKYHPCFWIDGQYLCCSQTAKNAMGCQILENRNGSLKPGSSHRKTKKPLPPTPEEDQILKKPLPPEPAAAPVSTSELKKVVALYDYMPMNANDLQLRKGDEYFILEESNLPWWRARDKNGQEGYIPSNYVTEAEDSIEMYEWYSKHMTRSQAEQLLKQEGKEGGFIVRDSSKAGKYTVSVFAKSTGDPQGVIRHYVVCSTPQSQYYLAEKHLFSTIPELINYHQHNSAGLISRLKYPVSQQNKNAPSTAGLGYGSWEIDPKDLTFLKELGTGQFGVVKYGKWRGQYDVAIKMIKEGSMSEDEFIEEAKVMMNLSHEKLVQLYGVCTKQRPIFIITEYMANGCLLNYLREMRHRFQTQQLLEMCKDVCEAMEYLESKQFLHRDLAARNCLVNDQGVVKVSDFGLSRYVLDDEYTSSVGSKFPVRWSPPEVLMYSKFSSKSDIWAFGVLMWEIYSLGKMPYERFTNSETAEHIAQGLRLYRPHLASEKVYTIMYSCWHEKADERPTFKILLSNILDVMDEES

The term Dmax denotes the greatest extent of degradation seen. Read a low Dmax as shallow degradation. As a reminder, the DC50 is the midpoint of the concentration-degradation curve. As to `Nc1ncnc2c1c(-c1ccc(Oc3ccccc3)cc1)nn2[C@@H]1CCCN(CC2CCN(C(=O)N3CCN(c4ccc5c(c4)C(=O)N(C4CCC(=O)NC4=O)C5=O)CC3)CC2)C1` (stereo partly drawn) [Compound 25, 5-(4-(4-(((R)-3-(4-amino-3-(4-phenoxyphenyl)-1H-pyrazolo(3,4-d)pyrimidin-1-yl)piperidin-1-yl)methyl)piperidine-1-carbonyl)piperazin-1-yl)-2-(2,6-dioxopiperidin-3-yl)isoindoline-1,3-dione], the IC50 in the experiment with JeKo-1 cells lay within 1000 to 10000 nM. Also, at BTK [1], the Dmax is more than 75% and the half-maximal degradation concentration (DC50) is more than 50 nM. The IC50 in the experiment on Mino cells lay in the range of 1000 to 10000 nM. The “degradation of BTK protein at 10^−6 M” value at BTK [2] is “degradation”.
On to `Nc1ncnc2c1c(-c1ccc(Oc3ccccc3)cc1)nn2[C@@H]1CCCN(CC2CCN(C(=O)N3CCC(C4CCN(c5ccc6c(c5)C(=O)N(C5CCC(=O)NC5=O)C6=O)CC4)CC3)CC2)C1` (stereo partly drawn) [Compound 29, 5-(1′-(4-(((R)-3-(4-amino-3-(4-phenoxyphenyl)-1H-pyrazolo(3,4-d)pyrimidin-1-yl)piperidin-1-yl)methyl)piperidine-1-carbonyl)-(4,4′-bipiperidin)-1-yl)-2-(2,6-dioxopiperidin-3-yl)isoindoline-1,3-dione], for which the IC50 in the experiment on JeKo-1 cells is 1000 to 10000 nM. At BTK [1], this compound registered a Dmax of more than 90% and a DC50 of more than 50 nM. For the same compound, the IC50 with Mino cells fell in the range of 1000 to 10000 nM. Also, the “degradation of BTK protein at 10^−6 M” value at BTK [2] is given as “degradation”.
As for `Nc1ncnc2c1c(-c1ccc(Oc3ccccc3)cc1)nn2[C@@H]1CCCN(CC2CCN(C(=O)N3CCC(CN4CCN(c5ccc6c(c5)C(=O)N(C5CCC(=O)NC5=O)C6=O)CC4)CC3)CC2)C1` (stereo partly drawn) [Compound 31, 5-(4-((1-(4-(((R)-3-(4-amino-3-(4-phenoxyphenyl)-1H-pyrazolo(3,4-d)pyrimidin-1-yl)piperidin-1-yl)methyl)piperidine-1-carbonyl)piperidin-4-yl)methyl)piperazin-1-yl)-2-(2,6-dioxopiperidin-3-yl)isoindoline-1,3-dione], in the experiment with JeKo-1 cells, the IC50 lay in the range of 1000 to 10000 nM. Moreover, at BTK [1], the Dmax is more than 90% and the 50% degradation concentration (DC50) lay in the range of 10 to 50 nM. Besides, the IC50 with Mino cells is 1000 to 10000 nM. Besides, at BTK [2], the “degradation of BTK protein at 10^−6 M” value was “degradation” and the “degradation of BTK protein” value is on record as “dose-dependent degradation”.
Take `Nc1ncnc2c1c(-c1ccc(Oc3ccccc3)cc1)nn2[C@@H]1CCCN(CC2CCN(C(=O)N3CCC(CCN4CCN(c5ccc6c(c5)C(=O)N(C5CCC(=O)NC5=O)C6=O)CC4)CC3)CC2)C1` (stereo partly drawn) [Compound 33, 5-(4-(2-(1-(4-(((R)-3-(4-amino-3-(4-phenoxyphenyl)-1H-pyrazolo(3,4-d)pyrimidin-1-yl)piperidin-1-yl)methyl)piperidine-1-carbonyl)piperidin-4-yl)ethyl)piperazin-1-yl)-2-(2,6-dioxopiperidin-3-yl)isoindoline-1,3-dione]: in the experiment on JeKo-1 cells, the IC50 was 1000 to 10000 nM. At BTK [1], this compound had a Dmax of more than 90% and a DC50 of more than 50 nM. In addition, the IC50 in the experiment with Mino cells was in the range of 1000 to 10000 nM. At BTK [2], the “degradation of BTK protein at 10^−6 M” value was “degradation” and the “degradation of BTK protein” value is recorded as “dose-dependent degradation”.
On to `Nc1ncnc2c1c(-c1ccc(Oc3ccccc3)cc1)nn2C1CCN(CC2CCN(C(=O)N3CCN(c4ccc5c(c4)C(=O)N(C4CCC(=O)NC4=O)C5=O)CC3)CC2)CC1` (centres unmarked) [Compound 35, 5-(4-(4-((4-(4-amino-3-(4-phenoxyphenyl)-1H-pyrazolo(3,4-d)pyrimidin-1-yl)piperidin-1-yl)methyl)piperidine-1-carbonyl)piperazin-1-yl)-2-(2,6-dioxopiperidin-3-yl)isoindoline-1,3-dione], for which, in the experiment on JeKo-1 cells, the IC50 was 1000 to 10000 nM. At BTK [1], this compound displayed a maximal degradation (Dmax) of more than 90% and a 50% degradation concentration (DC50) of less than 10 nM. Besides, the IC50 in the experiment on Mino cells is less than 1000 nM. Besides, on BTK [2], the “degradation of BTK protein at 10^−6 M” value is listed as “degradation” and the “degradation of BTK protein” value is recorded as “dose-dependent degradation”.
Regarding `Nc1ncnc2c1c(-c1ccc(Oc3ccccc3)cc1)nn2C1CCN(CC2CCN(C(=O)N3CCC(N4CCN(c5ccc6c(c5)C(=O)N(C5CCC(=O)NC5=O)C6=O)CC4)CC3)CC2)CC1` (centres unmarked) [Compound 37, 5-(4-(1-(4-((4-(4-amino-3-(4-phenoxyphenyl)-1H-pyrazolo(3,4-d)pyrimidin-1-yl)piperidin-1-yl)methyl)piperidine-1-carbonyl)piperidin-4-yl)piperazin-1-yl)-2-(2,6-dioxopiperidin-3-yl)isoindoline-1,3-dione], the IC50 in the experiment with JeKo-1 cells lay within 1000 to 10000 nM. Further, at BTK [1], the Dmax was more than 90% and the half-maximal degradation concentration (DC50) was in the range of 10 to 50 nM. The IC50 with Mino cells was less than 1000 nM. On BTK [2], the “degradation of BTK protein at 10^−6 M” value is on record as “degradation” and the “degradation of BTK protein” value was “dose-dependent degradation”.
Consider `Nc1ncnc2c1c(-c1ccc(Oc3ccccc3)cc1)nn2C1CCN(CC2CCN(C(=O)N3CCC(C4CCN(c5ccc6c(c5)C(=O)N(C5CCC(=O)NC5=O)C6=O)CC4)CC3)CC2)CC1` (centres unmarked) [Compound 39, 5-(1′-(4-((4-(4-amino-3-(4-phenoxyphenyl)-1H-pyrazolo(3,4-d)pyrimidin-1-yl)piperidin-1-yl)methyl)piperidine-1-carbonyl)-(4,4′-bipiperidin)-1-yl)-2-(2,6-dioxopiperidin-3-yl)isoindoline-1,3-dione], for which the IC50 in the experiment with JeKo-1 cells was more than 10000 nM. At BTK [1], this compound gave a Dmax of more than 90% and a DC50 of more than 50 nM. In addition, the IC50 with Mino cells lay in the range of 1000 to 10000 nM. For the same compound, at BTK [2], the “degradation of BTK protein at 10^−6 M” value is reported as “degradation” and the “degradation of BTK protein” value is listed as “dose-dependent degradation”.
For the compound `Nc1ncnc2c1c(-c1ccc(Oc3ccccc3)cc1)nn2C1CCN(CC2CCN(C(=O)N3CCC(CN4CCN(c5ccc6c(c5)C(=O)N(C5CCC(=O)NC5=O)C6=O)CC4)CC3)CC2)CC1` (centres unmarked) [Compound 41, 5-(4-((1-(4-((4-(4-amino-3-(4-phenoxyphenyl)-1H-pyrazolo(3,4-d)pyrimidin-1-yl)piperidin-1-yl)methyl)piperidine-1-carbonyl)piperidin-4-yl)methyl)piperazin-1-yl)-2-(2,6-dioxopiperidin-3-yl)isoindoline-1,3-dione], the IC50 with JeKo-1 cells was 1000 to 10000 nM. Also, at BTK [1], the Dmax is more than 90% and the 50% degradation concentration (DC50) was 10 to 50 nM. Further, in the experiment with Mino cells, the IC50 is less than 1000 nM. On BTK [2], the “degradation of BTK protein at 10^−6 M” value is on record as “degradation” and the “degradation of BTK protein” value is on record as “dose-dependent degradation”.
Regarding `Nc1ncnc2c1c(-c1ccc(Oc3ccccc3)cc1)nn2[C@@H]1CCCN(C(=O)N2CCN(c3ccc4c(c3)C(=O)N(C3CCC(=O)NC3=O)C4=O)CC2)C1` (stereo partly drawn) [Compound 45, 5-(4-((R)-3-(4-amino-3-(4-phenoxyphenyl)-1H-pyrazolo[3,4-d]pyrimidin-1-yl)piperidine-1-carbonyl)piperazin-1-yl)-2-(2,6-dioxopiperidin-3-yl)isoindoline-1,3-dione], the IC50 in the experiment on JeKo-1 cells was more than 10000 nM. On BTK [1], the maximal degradation (Dmax) was more than 50% and the DC50 is more than 50 nM. In addition, in the experiment on Mino cells, the IC50 was more than 10000 nM. Moreover, the “degradation of BTK protein at 10^−6 M” value at BTK [2] is given as “degradation”.
Turning to `Nc1ncnc2c1c(-c1ccc(Oc3ccccc3)cc1)nn2[C@@H]1CCCN(C(=O)N2CCC(C3CCN(c4ccc5c(c4)C(=O)N(C4CCC(=O)NC4=O)C5=O)CC3)CC2)C1` (stereo partly drawn) [Compound 49, 5-(1′-((R)-3-(4-amino-3-(4-phenoxyphenyl)-1H-pyrazolo(3,4-d)pyrimidin-1-yl)piperidine-1-carbonyl)-(4,4′-bipiperidin)-1-yl)-2-(2,6-dioxopiperidin-3-yl)isoindoline-1,3-dione], the IC50 with JeKo-1 cells and with Mino cells was 1000 to 10000 nM in each case. On BTK [1], the maximal degradation (Dmax) was more than 90%. The same compound showed a 50% degradation concentration (DC50) on BTK [1] of 10 to 50 nM. Further, on BTK [2], the “degradation of BTK protein at 10^−6 M” value is given as “degradation”.
Turning to `Nc1ncnc2c1c(-c1ccc(Oc3ccccc3)cc1)nn2[C@@H]1CCCN(C(=O)N2CCC(N3CCN(c4ccc5c(c4)C(=O)N(C4CCC(=O)NC4=O)C5=O)CC3)CC2)C1` (stereo partly drawn) [Compound 51, 5-(4-(1-((R)-3-(4-amino-3-(4-phenoxyphenyl)-1H-pyrazolo(3,4-d)pyrimidin-1-yl)piperidine-1-carbonyl)piperidin-4-yl)piperazin-1-yl)-2-(2,6-dioxopiperidin-3-yl)isoindoline-1,3-dione], the IC50 in the experiment with JeKo-1 cells is less than 1000 nM. At BTK [1], this compound came in with a Dmax of more than 90% and a DC50 of less than 10 nM. Also, the IC50 in the experiment on Mino cells was less than 1000 nM. Further, at BTK [2], the “degradation of BTK protein at 10^−6 M” value was “degradation” and the “degradation of BTK protein” value is given as “dose-dependent degradation”.
`Nc1ncnc2c1c(-c1ccc(Oc3ccccc3)cc1)nn2[C@@H]1CCCN(C(=O)N2CCC(CN3CCN(c4ccc5c(c4)C(=O)N(C4CCC(=O)NC4=O)C5=O)CC3)CC2)C1` (stereo partly drawn) [Compound 55, 5-(4-((1-((R)-3-(4-amino-3-(4-phenoxyphenyl)-1H-pyrazolo(3,4-d)pyrimidin-1-yl)piperidine-1-carbonyl)piperidin-4-yl)methyl)piperazin-1-yl)-2-(2,6-dioxopiperidin-3-yl)isoindoline-1,3-dione]: the IC50 with JeKo-1 cells is less than 1000 nM. At BTK [1], this compound returned a Dmax of more than 90% and a DC50 of 10 to 50 nM. Besides, the IC50 with Mino cells was less than 1000 nM. Besides, on BTK [2], the “degradation of BTK protein at 10^−6 M” value is reported as “degradation” and the “degradation of BTK protein” value was “dose-dependent degradation”.
